The source of these data is ChEMBL document CHEMBL1131647, “Enzymatic synthesis of a modified phospholipid and its evaluation as a substrate for B. cereus phospholipase C” (Bioorg Med Chem Lett, 1998).

Assay [1] relates to Phospholipase C (Bacillus cereus). The assay can be described thus: Critical Micellar Concentration for the compound was calculated for phospholipase C from Bacillus cereus.
Assay [2] shares this test system. The assay can be described thus: Compound was evaluated for its […] activity against phospholipase C from Bacillus cereus.

As to `CCCCCC(=O)OCC(COP(=O)(O)OCCC(C)(C)C)OC(=O)CCCCC` (stereo not drawn), in assay [1], the CMC was 9.5 mM. In addition, the k cat in assay [2] worked out at 5.2 s⁻¹.
`CCCCCC(=O)OCC(COP(=O)([O-])OCC[N+](C)(C)C)OC(=O)CCCCC` (stereo not drawn) displayed a k cat in assay [2] of 1000 s⁻¹.
